Drawing on patent US8497263B2, “Pyrrolinone derivative and pharmaceutical composition comprising the same” (Shionogi & Co., Ltd., priority 2007, dated 2013), this text covers melting point for 54 compounds.

One may read the melting point as the temperature, or range, at which the solid turns liquid. For the compound `COc1ccc(C(=O)C2=C(O)C(=O)N(c3ccc(-c4ccon4)cc3)C2c2ccc(Cl)cc2)cc1` (stereo not drawn) [Example I-11], the melting point is 268 to 270 °C (dec.).
`COc1ccc(C(=O)C2=C(O)C(=O)N(c3ccc(-c4noc(C)n4)cc3)C2c2ccc(F)cc2)cc1` (stereo not drawn) [Example I-14]: the melting point was in the range of 236 to 239 °C.
With `COc1ccc(C(=O)C2C(=O)C(=O)N(c3ccc(-c4ccon4)cc3)C2c2ccc(F)cc2)cc1` (stereo not drawn) [Example I-18], the melting point was 269 to 274 °C (dec.).
For `COc1ccc(C(=O)C2=C(O)C(=O)N(c3ccc(-c4ccon4)cc3)C2c2cccc(F)c2)cc1` (stereo not drawn) [Example I-26, 5-(3-fluorophenyl)-3-hydroxy-1-(4-isoxazol-3-ylphenyl)-4-(4-methoxybenzoyl)-1,5-dihydropyrrol-2-one], the melting point was 273 to 274 °C (dec.).
The compound `COc1ccc(C(=O)C2=C(O)C(=O)N(c3ccc(-c4ccon4)cc3)C2c2cccc(Cl)c2)cc1` (stereo not drawn) [Example I-27] came in with a melting point of 238 to 240 °C.
As to `COc1ccc(C(=O)C2=C(O)C(=O)N(c3ccc(-c4ccon4)cc3)C2c2ccccc2F)cc1` (stereo not drawn) [Example I-31], the melting point was 270 to 271 °C (dec.).
The compound `CC(C)(C)C(=O)C1=C(O)C(=O)N(c2ccc(-c3ccon3)cc2)C1C1CCCCC1` (stereo not drawn) [Example I-32, 5-cyclohexyl-4-(2,2-dimethylpropionoyl)-3-hydroxy-1-(4-isoxazol-3-ylphenyl)-1,5-dihydropyrrol-2-one] gave a melting point of 259 to 260 °C.
For the compound `COc1ccc(C(=O)C2=C(O)C(=O)N(c3ccc(C(F)(F)F)cc3)C2c2ccc(F)cc2)cc1` (stereo not drawn) [Example I-34], the melting point was 253 to 256 °C (dec.).
For the compound `COc1ccc(C(=O)C2C(=O)C(=O)N(c3ccc(-c4ccon4)cc3)C2c2ccccc2Cl)cc1` (stereo not drawn) [Example I-40], the melting point was 254 to 258 °C (dec.).
With `COc1ccc(C(=O)C2=C(O)C(=O)N(c3ccc(-c4ccon4)cc3)C2c2cccc(OC)c2)cc1` (stereo not drawn) [Example I-46], the melting point lay within 238 to 240 °C.
On to `COc1ccc(C(=O)C2=C(O)C(=O)N(c3ccc(-c4ccon4)cc3)C2c2ccccc2)cc1` (stereo not drawn) [Example I-50], for which the melting point was in the range of 271 to 274 °C.
Turning to `CC(C)(C)C(=O)C1=C(O)C(=O)N(c2ccc(C(F)(F)F)cc2)C1C1CCCCC1` (stereo not drawn) [Example I-56], the melting point fell in the range of 238 to 239 °C.
The result for `COc1ccc(C(=O)C2C(=O)C(=O)N(c3ccc(-c4cnco4)cc3)C2c2ccc(F)cc2)cc1` (stereo not drawn) [Example I-64] reads 245 to 246 °C; that for `COc1ccc(C(=O)C2C(=O)C(=O)N(c3ccc(OC)cc3)C2c2ccc(F)cc2)cc1` (stereo not drawn) [Example I-73], 245 to 247 °C.
`COc1ccc(C(=O)C2C(=O)C(=O)N(c3ccc(-c4cnco4)cc3)C2c2ccccc2)cc1` (stereo not drawn) [Example I-78] yielded a melting point of 253 to 254 °C.
Regarding `COc1ccc(C(=O)C2=C(O)C(=O)N(c3ccc(C(=O)O)cc3)C2c2ccccc2)cc1` (stereo not drawn) [Example I-87], the melting point was in the range of 268 to 271 °C.
Compound `COc1ccc(C(=O)C2=C(O)C(=O)N(c3cccc(-c4ccon4)c3)C2c2ccc(F)cc2)cc1` (stereo not drawn) [Example I-185] gave a melting point of 193 to 196 °C.
The result for `CC(C)(C)C(=O)C1/C(=N/O)C(=O)N(c2ccc(-c3ccon3)cc2)C1C1CCCCC1` (stereo not drawn) [Example I-193] reads 255 to 256 °C.
Regarding `CC(C)(C)c1n[nH]c2c1C(C1CCCCC1)N(c1ccc(C(F)(F)F)cc1)C2=O` (stereo not drawn) [Example I-194], the melting point was in the range of 245 to 246 °C.
`CCC(CC)C1c2c(-c3ccc(=O)[nH]c3)n[nH]c2C(=O)N1c1ccc(-c2ccon2)cc1` (stereo not drawn) [Example I-198, 4-(1-ethylpropyl)-5-(4-isoxazol-3-ylphenyl)-3-(6-oxo-1,6-dihydropyridin-3-yl)-4,5-dihydro-1H-pyrrolo[3,4-c]pyrazol-6-one]: the melting point was > 290 °C.
Consider `COc1ccc(C2C(Cc3ccccc3)=C(O)C(=O)N2c2ccc(F)cc2)cc1` (stereo not drawn) [Example I-202], for which the melting point is 177 to 178 °C.
The result for `CCOC(=O)c1ccc(N2C(=O)C(O)=C(Cc3ccccc3)C2c2ccc(OC)cc2)cc1` (stereo not drawn) [Example I-203] reads 160 to 161 °C; that for `COc1ccc(C(=O)C2=C(O)C(=O)N(Cc3ccc(C(F)(F)F)cc3)C2c2ccc(F)cc2)cc1` (stereo not drawn) [Example I-204], 234 to 237 °C; that for `CCC(CC)C1C(C(=O)c2ccc(OC)nc2)=C(O)C(=O)N1c1ccc(-c2ccon2)cc1` (stereo not drawn) [Example I-207], 246 to 249 °C.
With `CCC(CC)C1C(C(=O)c2ccc(=O)[nH]c2)=C(O)C(=O)N1c1ccc(-c2ccon2)cc1` (stereo not drawn) [Example I-208], the melting point is > 290 °C.
The result for `CO/N=C/c1ccc(N2C(=O)C(O)=C(C(=O)c3ccc(OC)cc3)C2c2ccc(F)cc2)cc1` (stereo not drawn) [Example I-209] reads 232 to 235 °C; that for `COc1ccc(-c2n[nH]c3c2C(c2ccc(F)cc2)N(c2ccc(-c4ccon4)cc2)C3=O)cc1` (stereo not drawn) [Example I-210], 164 to 166 °C.
In turn, `CCC(CC)C1c2c(-c3ccc(OC)nc3)n[nH]c2C(=O)N1c1ccc(-c2ccon2)cc1` (stereo not drawn) [Example I-211] displayed a melting point of 226 to 228 °C.
On to `COc1ccc(C(=O)C2=C(O)C(=O)N(c3ccc(-c4nnco4)cc3)C2c2ccc(F)cc2)cc1` (stereo not drawn) [Example I-213], for which the melting point is 244 to 247 °C.
With `CCCC(C)C1C(C(=O)c2ccc(OC)cc2)=C(O)C(=O)N1c1ccc(-c2ccon2)cc1` (stereo not drawn) [Example I-214], the melting point is 227 to 232 °C.
On to `CCCCC(CCCC)C1C(C(=O)c2ccc(OC)cc2)=C(O)C(=O)N1c1ccc(-c2ccon2)cc1` (stereo not drawn) [Example I-215], for which the melting point is 207 to 210 °C.
Turning to `COc1ccc(C(=O)C2=C(O)C(=O)N(c3ccc(C4=NCCS4)cc3)C2c2ccc(F)cc2)cc1` (stereo not drawn) [Example I-216], the melting point lay in the range of 229 to 232 °C.
The compound `COc1ccc(C(=O)C2=C(OCc3ccccc3)C(=O)N(c3ccc(C(F)(F)F)cc3)C2c2ccccc2)cc1` (stereo not drawn) [Example I-217] yielded a melting point of 173 to 174 °C.
For `COc1ccc(C(=O)C2=C(O)C(=O)N(c3ccc(-c4cc(C)no4)cc3)C2c2ccc(F)cc2)cc1` (stereo not drawn) [Example I-219], the melting point fell in the range of 249 to 252 °C.
For the compound `CCCC(CCC)C1C(C(=O)c2ccc(OC)cc2)=C(O)C(=O)N1c1ccc(-c2ccon2)cc1` (stereo not drawn) [Example I-220], the melting point lay within 229 to 231 °C.
The result for `COc1ccc(C(=O)C2=C(O)C(=O)N(c3ccc(-c4ccon4)cc3)C2C(C)c2ccccc2)cc1` (stereo not drawn) [Example I-221] reads 241 to 244 °C; that for `COc1ccc(C(=O)C2=C(O)C(=O)N(c3ccc(-c4ccon4)cc3)C2C2CCN(C(=O)OC(C)(C)C)CC2)cc1` (stereo not drawn) [Example I-222], 247 to 249 °C; that for `COc1ccc(C(=O)C2=C(O)C(=O)N(c3ccc(-c4ccon4)cc3)C2C2CCOCC2)cc1` (stereo not drawn) [Example I-224], 268 to 272 °C.
For the compound `CCOC(=O)c1ccc(N2C(=O)C(OCc3ccccc3)=C(C(=NO)c3ccc(OC)cc3)C2c2ccccc2)cc1` (stereo not drawn) [Example I-225], the melting point was in the range of 196 to 201 °C.
On to `CCOC(=O)c1ccc(N2C(=O)/C(=N\O)C(/C(=N\O)c3ccc(OC)cc3)C2c2ccccc2)cc1` (stereo not drawn) [Example I-226], for which the melting point was 219 to 221 °C (dec.).
`CO/N=C(\C)c1ccc(N2C(=O)C(O)=C(C(=O)c3ccc(OC)cc3)C2c2ccc(F)cc2)cc1` (stereo not drawn) [Example I-227] had a melting point of 221 to 224 °C.
In turn, `COc1ccc(-c2n[nH]c3c2C(c2ccc(F)cc2)N(c2ccc(C(F)(F)F)cc2)C3=O)cc1` (stereo not drawn) [Example I-228] displayed a melting point of 217 to 218 °C.
Regarding `COc1ccc(C2=NCCNC3=C2C(c2ccc(F)cc2)N(c2ccc(C(F)(F)F)cc2)C3=O)cc1` (stereo not drawn) [Example I-229], the melting point lay within 213 to 215 °C.
Consider `CC(C)(C)C1=NCCNC2=C1C(C1CCCCC1)N(c1ccc(-c3ccon3)cc1)C2=O` (stereo not drawn) [Example I-230], for which the melting point was in the range of 229 to 230 °C.
Compound `COc1ccc(C(=O)C2=C(O)C(=O)N(c3ccc(-c4noc(C)n4)cc3)C2C2CCCCC2)cc1` (stereo not drawn) [Example I-231] returned a melting point of 245 to 248 °C.
The compound `CCC(CC)C1C(C(=O)c2ccc(OC)cc2)=C(O)C(=O)N1c1ccc(-c2noc(C)n2)cc1` (stereo not drawn) [Example I-232] had a melting point of 223 to 225 °C.
Consider `COc1ccc(C(=O)C2=C(O)C(=O)N(c3ccc(C4=NCCS4)cc3)C2C2CCCCC2)cc1` (stereo not drawn) [Example I-233], for which the melting point was 247 to 250 °C.
As for `CCC(CC)C1C(C(=O)c2ccc(OC)cc2)=C(O)C(=O)N1c1ccc(C2=NCCS2)cc1` (stereo not drawn) [Example I-234], the figure is 230 to 233 °C.
Take `COc1ccc(C(=O)C2=C(O)C(=O)N(c3ccc(-c4ccon4)cc3)C2c2ccccn2)cc1` (stereo not drawn) [Example I-236]: the melting point lay within 232 to 234 °C.
The compound `COc1ccc(C(=O)C2=C(O)C(=O)N(c3ccc(Br)cc3)C2c2ccccc2)cc1` (stereo not drawn) [Example I-237] showed a melting point of 233 to 236 °C.
On to `COc1ccc(C(=O)C2=C(O)C(=O)N(c3ccc(OC)cc3)C2c2ccc(F)cc2)cc1` (stereo not drawn) [Example I-238], for which the melting point is 245 to 247 °C.
As for `COc1ccc(C(=NO)C2=C(OCc3ccccc3)C(=O)N(c3ccc(C(F)(F)F)cc3)C2c2ccccc2)cc1` (stereo not drawn) [Example I-250], the figure is 197 to 204 °C; as for `COc1ccccc1C1c2c(C(C)(C)C)n[nH]c2C(=O)N1c1cccc(-c2ccon2)c1` (stereo not drawn) [II-8], 202 °C.
Turning to `COC1=C(C(=O)C(C)(C)C)C(c2ccccc2OC)N(c2ccc(-c3ccon3)cc2)C1=O` (stereo not drawn) [II-156], the melting point is 136 to 137 °C.
